Assay results from US7175872B2, “Pyridinium-Betain compounds for use as taste modulators” (Nestec S.A., priority 2002, dated 2007).
Where a name gives a salt, the structure may show the parent alone.

How the values were obtained:
Type in all cases: in vivo
umami taste of MSG = assay: Umami taste detection threshold of MSG/Pyridinium-Betaine mixtures (triangle test, sensory panel)
Method: (§1) • Sensory panel training: […] Sensory analyses were performed in a sensory panel room at 22-25° C. on three different sessions. • Taste thresholds: The taste thresholds of the tastants or mixtures containing basic tastants plus Pyridinium-Betains were determined in a triangle test using Evian® mineral water as the solvent at a defined pH ([…] and H.-D. Belitz, Z. Lebensm. Unters. Forsch. 1975, 159, 65-72). The samples (3 mL) were presented in order of increasing concentrations (serial 1:1 dilutions). The threshold values evaluated in two different sessions were averaged. […] The taste intensities of aqueous (Evian®) solutions containing a basic tastant, such as glucose and MSG, for example, in constant concentrations and the compounds of the general formula (A), for example […], in various concentrations were compared with those of a solution containing the basic tastant only. To achieve this, triangle tests were performed with two glass vials containing the basic tastant in constant concentrations, and one glass vial containing a stepwise 1:1-diluted mixture of basic […]. […] The relative taste strength (taste enhancing factor) of a mixture containing the basic […] was related to the basic tastants glucose, MSG, or other tastants, respectively, as standard substances, and was determined as the ratio of the concentrations c of iso-intensely tasting solutions of the basic tastant, such as glucose (glc), and the mixture containing tastant plus Pyridinium-Betain, […])=[…] […] This taste enhancing effect is illustrated in examples. Pyridinium-Betaines not only enhance the sweet taste perception, but also the umami taste.

sweet taste of sucrose = assay: Sweet taste detection threshold of sucrose/Pyridinium-Betaine mixtures (triangle test, sensory panel); design: key to Threshold decrease: fold decrease of sweet threshold vs pure sucrose
Method: (§2) • Sensory panel training: […] Sensory analyses were performed in a sensory panel room at 22-25° C. on three different sessions. • Taste thresholds: The taste thresholds of the tastants or mixtures containing basic tastants plus Pyridinium-Betains were determined in a triangle test using Evian® mineral water as the solvent at a defined pH ([…] and H.-D. Belitz, Z. Lebensm. Unters. Forsch. 1975, 159, 65-72). The samples (3 mL) were presented in order of increasing concentrations (serial 1:1 dilutions). The threshold values evaluated in two different sessions were averaged. […] The taste intensities of aqueous (Evian®) solutions containing a basic tastant, such as glucose and MSG, for example, in constant concentrations and the compounds of the general formula (A), for example […], in various concentrations were compared with those of a solution containing the basic tastant only. To achieve this, triangle tests were performed with two glass vials containing the basic tastant in constant concentrations, and one glass vial containing a stepwise 1:1-diluted mixture of basic […]. […] The relative taste strength (taste enhancing factor) of a mixture containing the basic […] was related to the basic tastants glucose, MSG, or other tastants, respectively, as standard substances, and was determined as the ratio of the concentrations c of iso-intensely tasting solutions of the basic tastant, such as glucose (glc), and the mixture containing tastant plus Pyridinium-Betain, […])=[…] This taste enhancing effect is illustrated in examples. The sweet taste thresholds of equimolar mixtures of sweet tasting compounds and various Pyridinium-Betaines were determined by a triangle test using EVIAN® mineral water as the solvent. The sensorial evaluations were performed at different pH values. The equimolar mixture of […] and sucrose at pH 7.0 was evaluated with a 4-fold lower sweet threshold concentration than pure sucrose (Table 1).

sweet taste of glucose = assay: Sweet taste detection threshold of glucose/Pyridinium-Betaine mixtures (triangle test, sensory panel); conditions: equimolar mixture with glucose, pH 7.0; for Threshold decrease: vs glucose in water 50.0 mmol/L
Method: as §2, with “1). […] is able to reduce the sweet threshold of glucose 16-fold at pH 7.0 and pH 9.0, whereas at pH 5.0 a gain the sweet taste perception […] (Table 2). […] Using the dipeptide derivative (S)-[…] as a taste-enhancer leads to a 16-fold threshold reduction compared to glucose.” for “1).”

salty taste of NaCl = assay: Salt taste detection threshold of NaCl/Pyridinium-Betaine mixtures (triangle test, sensory panel)
Method: • Sensory panel training: […] Sensory analyses were performed in a sensory panel room at 22-25° C. on three different sessions. • Taste thresholds: The taste thresholds of the tastants or mixtures containing basic tastants plus Pyridinium-Betains were determined in a triangle test using Evian® mineral water as the solvent at a defined pH ([…] and H.-D. Belitz, Z. Lebensm. Unters. Forsch. 1975, 159, 65-72). The samples (3 mL) were presented in order of increasing concentrations (serial 1:1 dilutions). The threshold values evaluated in two different sessions were averaged. […] The taste intensities of aqueous (Evian®) solutions containing a basic tastant, such as glucose and MSG, for example, in constant concentrations and the compounds of the general formula (A), for example […], in various concentrations were compared with those of a solution containing the basic tastant only. […] The relative taste strength (taste enhancing factor) of a mixture containing the basic […] was related to the basic tastants glucose, MSG, or other tastants, respectively, as standard substances, and was determined as the ratio of the concentrations c of iso-intensely tasting solutions of the basic tastant, such as glucose (glc), and the mixture containing tastant plus Pyridinium-Betain, […])=[…] […] This taste enhancing effect is illustrated in examples.

bitter taste of caffeine = assay: Bitter intensity ranking with Glypyridaine: caffeine; conditions: no Glypyridaine, scale 0-5
Description: Instead of working with low concentrated solutions at the bitter threshold, another series of experiments use carried out using more concentrated solutions of various bitter compounds to evaluate the bitter-blocking properties of Pyridinium-Betaines based on non-chiral amino acids. […] The bitter-reducing effect was most pronounced with L-Phenylalanine, the dipeptide H-Gly-Leu-OH, and caffeine.

sweet taste of L-alanine = assay: Sweet taste detection threshold of L-alanine/Pyridinium-Betaine mixtures (triangle test, sensory panel); conditions: L-alanine alone
Method: as §1, with “Besides the two carbohydrates,” for “Pyridinium-Betaines not only enhance”, “sweet amino acid L-alanine was also tested with […]. Again, the best impact on sweet” for “sweet”, “perception was found for” for “perception, but also”, “mixture at pH 9.0, resulting in an 8-fold lower threshold.” for “umami taste.”

[1] = umami, MSG and mixtures with Alapyridaine enantiomers (Table 9), pH not stated
[2] = sweet, vs sucrose alone (Table 10)
[3] = equimolar mixture with MSG, pH 7.0
[4] = equimolar mixture with MSG, pH 7.0, vs MSG in water 1.5 mmol/L
[5] = equimolar mixture with sucrose, pH 7.0
[6] = equimolar mixture with sucrose, pH 9.0
[7] = equimolar mixture with sucrose, pH 9.0, vs sucrose in water 12.5 mmol/L

For C[C@@H](C(=O)[O-])[n+]1cc(O)ccc1CO [(+)-(S)-Alapyridaine, (S)-N-(1-carboxyethyl)-3-hydroxy-6-hydroxymethyl-pyridinium inner salt], the Detection threshold (umami taste of MSG; [1]) was 0.2 mmol/kg water and the Threshold decrease (sweet taste of sucrose; [2]) was 8.

In the case of O=C(C[n+]1cc(O)ccc1CO)N[C@@H](Cc1ccccc1)C(=O)[O-] [(S)-GlyPhepyridaine, (S)-N-[N(1-carboxy-2-phenyl-ethyl)-carboxamido-methyl]-3-hydroxy-6-hydroxymethyl-pyridinium inner salt], the Sweet detection threshold (sweet taste of glucose) is reported as 3.0 mmol/kg water, the Taste quality (sweet taste of glucose) is reported as “sweet” and the Threshold decrease (sweet taste of glucose) is reported as 16. For the same molecule, the Taste quality (umami taste of MSG; [3]) was “umami”, the Umami detection threshold (umami taste of MSG; [3]) was 0.2 mmol/kg water and the Threshold decrease (umami taste of MSG; [4]) was 8.0.

C[C@H](C(=O)[O-])[n+]1cc(O)ccc1CO [(−)-(R)-Alapyridaine, (R)-N-(1-carboxyethyl)-3-hydroxy-6-hydroxymethyl-pyridinium inner salt] was tested, and the Threshold decrease (salty taste of NaCl; salty, vs NaCl alone (Table 11)) was “did not alter the taste of the aqueous salt solution”, the Threshold decrease (umami taste of MSG; umami, vs MSG alone (Table 9)) was “does not have any taste enhancing impact” and the Threshold decrease (sweet taste of sucrose; [2]) was “does not alter the sweet taste perception of sucrose”.

Molecule Cn1c(=O)c2c(ncn2C)n(C)c1=O [Caffeine, reference compound] has a Bitter taste intensity (bitter taste of caffeine; Caffeine 4 mmol/L water) of 3, a Bitter taste intensity (bitter taste of caffeine; Caffeine 8 mmol/L water) of 4.5 and a Bitter taste intensity (bitter taste of caffeine; Caffeine 16 mmol/L water) of 5.

For O=C(O)CCC(C(=O)[O-])[n+]1cc(O)ccc1CO (stereo not shown) [Glupyridaine, N-(1,3-dicarboxypropyl)-3-hydroxy-6-hydroxymethyl-pyridinium inner salt], the Taste quality (umami taste of MSG; [3]) was “umami”, the Umami detection threshold (umami taste of MSG; [3]) was 0.4 mmol/kg water and the Threshold decrease (umami taste of MSG; [4]) was 4.0. The Sweet detection threshold (sweet taste of sucrose; [5]) was 12.0 mmol/kg water, the Taste quality (sweet taste of sucrose; [5]) was “sweet” and the Sweet detection threshold (sweet taste of sucrose; [6]) was 6.0 mmol/kg water. The Taste quality (sweet taste of sucrose; [6]) was “sweet” and the Threshold decrease (sweet taste of sucrose; [7]) was 2.

In the case of C[C@H](N)C(=O)O [L-alanine, reference compound], the “threshold of L-alanine in water” value (sweet taste of L-alanine) is reported as “^aThe threshold of L-alanine in water is 12.5 mmol/L”.

For N[C@@H](CCC(=O)O)C(=O)[O-].[Na+] [MSG, monosodium glutamate, reference compound], the “threshold of MSG in water” value (umami taste of MSG; MSG alone) was “^aThe threshold of MSG in water is 1.5 mmol/L”, the Taste quality (umami taste of MSG; MSG and mixtures with Alapyridaine enantiomers (Table 9), pH not stated) was “umami” and the Detection threshold (umami taste of MSG; [1]) was 1.5 mmol/kg water.

In the case of O=C([O-])[C@H](Cc1ccccc1)[n+]1cc(O)ccc1CO [Phepyridaine], the Sweet detection threshold (sweet taste of glucose) is reported as 3.0 mmol/kg water, the Taste quality (sweet taste of glucose) is reported as “sweet” and the Threshold decrease (sweet taste of glucose) is reported as 16.0. For the same molecule, the Salt detection threshold (salty taste of NaCl; mixture with NaCl, pH 7.0) was 2.0 mmol/kg water, the Taste quality (salty taste of NaCl; mixture with NaCl, pH 7.0) was “salty” and the Threshold decrease (salty taste of NaCl; mixture with NaCl, pH 7.0, vs NaCl in water 10.0 mmol/L) was 5.0. The Taste quality (umami taste of MSG; [3]) was “umami”, the Umami detection threshold (umami taste of MSG; [3]) was 0.4 mmol/kg water and the Threshold decrease (umami taste of MSG; [4]) was 4.0. For the same molecule, the Sweet detection threshold (sweet taste of sucrose; [5]) was 3.0 mmol/kg water, the Taste quality (sweet taste of sucrose; [5]) was “sweet” and the Threshold decrease (sweet taste of sucrose; equimolar mixture with sucrose, pH 7.0, vs sucrose in water 12.5 mmol/L) was 4.0. The Sweet detection threshold (sweet taste of sucrose; [6]) was 1.5 mmol/kg water, the Taste quality (sweet taste of sucrose; [6]) was “sweet” and the Threshold decrease (sweet taste of sucrose; [7]) was 8.0. The “concentration above which a rubber-like off-taste is imparted” value (sweet taste of sucrose; mixture with sucrose) was “above 3 mmol/kg” and the “concentration above which the sweetness is associated with a rubber-like taste” value (sweet taste of sucrose; mixture with sucrose) was “^bThe sweetness is associated with a rubber-like taste in concentrations higher than 3 mmol/L”.

In the case of OC[C@H]1O[C@@](CO)(O[C@H]2O[C@H](CO)[C@@H](O)[C@H](O)[C@H]2O)[C@@H](O)[C@@H]1O [Sucrose, sucrose, reference compound], the “threshold of sucrose in water” value (sweet taste of sucrose; sucrose alone) is reported as “^aThe threshold of sucrose in water is 12.5 mmol/L”, the Taste quality (sweet taste of sucrose; sucrose and mixtures with Alapyridaine enantiomers (Table 10), pH not stated) is reported as “sweet” and the Detection threshold (sweet taste of sucrose; sweet, sucrose and mixtures with Alapyridaine enantiomers (Table 10), pH not stated) is reported as 12.5 mmol/kg water.
